Assay results: paper PMC7395068, “The evolution of strategies to minimise the risk of human drug-induced liver injury (DILI) in drug discovery and development” (Archives of Toxicology, 2020)
Where two headings read alike, the source gives them in different places.

Legend:
[1] = Plasma free fraction (fu) and unbound Cmax (Cmax,u); assay type: in vitro ADME, human; conditions: unbound plasma Cmax
Procedure: The prediction of DILI severity was evaluated further using the 3D combined HCI assays using plasma-free fraction. The majority of fu values were obtained from literature, when unavailable in-house prediction was utilised. Unbound plasma Cmax concentrations (Cmax,u) were derived by multiplying total plasma Cmax with the corresponding free fraction (fu) for each compound.

[2] = plasma free fraction; cited from earlier work
HepG2 cells [3] = conditions: cited from earlier work
[4] = test system: HepG2 cells, primary human hepatocytes; conditions: In vitro Assay; ref Garside 2014; cited from earlier work
human hepatocytes = conditions: cited from earlier work
[5] = cited from earlier work
PHH = conditions: cited from earlier work
[6] = test system: THLE-Null and THLE-3A4 cells; conditions: In vitro Assay; ref Gustafsson 2014; cited from earlier work
rBsep = conditions: In vitro Assay; ref Dawson 2012; cited from earlier work
[7] = test system: isolated mouse liver mitochondria; conditions: In vitro Assay; ref Porceddu 2012; cited from earlier work
HepaRG spheroids = test: Combined HCI (HCS) and cellular ATP 3D assay in HepaRG spheroids
Procedure: 3D spheroid models consisting of either primary human hepatocytes with non-parenchymal cells (hLiMT’s) or HepaRG cells (HepaRG spheroids) were assessed for size (MS), oxidative stress (OS), MMP, mitochondrial mass (MM), GSH and cellular ATP content following drug exposure. Fluorescent images are acquired using the confocal mode of an ArrayScan™ XTI HCI reader (ThermoScientific) following which cellular ATP was measured using 3D CellTiter-Glo (Promega).

[8] = read-out: Human plasma Cmax; total plasma Cmax.tot, median of 9 literature references; cited from earlier work
HepG2 cells [9] = conditions: cited from earlier work; remark: listed apart in the source
[10] = cited from earlier work; remark: listed apart in the source
Upcyte human hepatocytes = conditions: In vitro Assay; ref Tolosa 2019; cited from earlier work
[11] = test system: THLE or HepG2 cells, isolated mitochondria, BSEP; conditions: cited from earlier work
hLiMTs [12] = test: Combined HCI (HCS) and cellular ATP 3D assay in hLiMTs
hLiMTs [13] = conditions: cited from earlier work
[14] = In vitro Assay, ref Persson 2013
[15] = In vitro Assay, ref Proctor 2017
[16] = Microtissue model structural based (HCI), combined HCS and ATP, MEC < 25 × Cmax.tot cut-off
[17] = Modeled in vitro assays (cytotoxicity, mitochondrial dysfunction, BSEP), ref Aleo et al. 2019

[H]/N=C(/N)N[C@H]1[C@H](O)[C@@H](O)[C@H](O[C@@H]2O[C@@H](C)[C@](O)(C=O)[C@H]2O[C@@H]2O[C@@H](CO)[C@H](O)[C@@H](O)[C@@H]2NC)[C@@H](N/C(N)=N\[H])[C@@H]1O [streptomycin, reference compound]
Human plasma Cmax,u [1]: 41.912 µM
fu [2]: 0.650
Cluser analysis (HepG2 cells [3]; [14]): -VE
Structural based (HCI) (HepG2 cells [3]; [14]): -VE
DILI in vitro assay prediction, Persson (2013) (HepG2 cells [3]; Structural based (HCI), HepG2, ref Persson et al. 2013): -VE
Cluster 1-6 +VE Assay [4]: -VE
Structural based (HCI) (human hepatocytes; In vitro Assay, ref Xu 2008): -VE
DILI in vitro assay prediction, Xu (2008) (human hepatocytes; Structural based (HCI), human hepatocytes, ref Xu et al. 2008): -VE
DILI severity category (Chen et al. [2016]) ([5]; LTKB DILIrank category, ref Chen et al. 2016): No
DILI severity category (Chen 2016) ([5]; human DILI classification, LTKB DILIrank, ref Chen et al. 2016): No
DILI severity category ([5]; human DILI severity, ref Chen et al.): No
DILI +VE (5-8), DILI -VE (-4) ([5]; ref Chen 2016): -VE
DILI severity category ([5]; ref Chen 2016): vNo-DILI-Concern
PHH/100xCmax, Proctor (2017) (PHH; 2D PHH, ATP, IC50 < 100 × Cmax.tot, ref Proctor et al. 2017): -VE
PHH/100uM, Proctor (2017) (PHH; 2D PHH, ATP, IC50 threshold 100 µM, ref Proctor et al. 2017): -VE
PHH ATP <100uM (PHH; [15]): -VE
THLE-Null [6]: -VE
THLE-Null/3A4 [6]: -VE
Inhibition of rBsep cutoff<1& cmax u>.2 (rBsep): -VE
Inhibition of rBsep cutoff<3 (rBsep): -VE
in vitro data EC2<=1x Cmax [7]: +VE
in vitro data EC20<=2uM [7]: -VE
HepaRG <25x Avg Cmax ATP (HepaRG spheroids; HepaRG, ATP endpoint, cut-off <25x Avg Cmax): -ve
HepaRG <100x Avg Cmaxu ATP (HepaRG spheroids; HepaRG, ATP endpoint, cut-off <100x Avg Cmaxu): +ve (<100x Avg Cmaxu)
HepaRG <25x Avg Cmax HCS (HepaRG spheroids; HepaRG, HCS endpoints, cut-off <25x Avg Cmax): -ve
HepaRG <100x Avg Cmaxu HCS (HepaRG spheroids; HepaRG, HCS endpoints, cut-off <100x Avg Cmaxu): +ve (<100x Avg Cmaxu)
HepaRG <25x Avg Cmax All (HepaRG spheroids; HepaRG, all endpoints (ATP and HCS), cut-off <25x Avg Cmax): -ve
HepaRG Cmax max All (HepaRG spheroids; HepaRG, all endpoints, Cmax max used): -ve
HepaRG Cmax min All (HepaRG spheroids; HepaRG, all endpoints, Cmax min used): -ve
HepaRG <10 uM All (HepaRG spheroids; HepaRG, all endpoints, cut-off <10 uM): -ve
HepaRG <100x Avg Cmaxu All (HepaRG spheroids; HepaRG, all endpoints, cut-off <100x Avg Cmaxu): +ve (<100x Avg Cmaxu)
AC50 (HepaRG spheroids; Homo sapiens, HepaRG, read-out: ATP endpoint AC50): 3650 µM
minimal effective concentration (HepaRG spheroids; Homo sapiens, HepaRG, read-out: ATP endpoint MEC): 2830 µM
minimal effective concentration (HepaRG spheroids; Homo sapiens, HepaRG, read-out: HCS endpoint MEC): 3140 µM
DILI prediction HepaRG spheroids (HCS-MEC) (HepaRG spheroids; [16]): -VE
Cmax [8]: 64.5 µM
Structural based (HCI) (HepG2 cells [9]; In vitro Assay, ref O'Brien 2006): +VE
DILI in vitro assay prediction, O'Brien (2006) (HepG2 cells [9]; Structural based (HCI), HepG2, ref O'Brien et al. 2006): +VE (lowest HCI endpoint IC50 (or in the absence of dose–response < 100 µM) < 30 × total human plasma exposure levels (Cmax.tot))
Assigned DILI category ([10]; Chen et al. 2016 or literature alignment, ref Chen et al. 2016): 1
In vivo DILI ([10]; ref Aleo 2019): -VE
In vivo DILI ([10]; ref Dawson 2012): -VE
In vivo DILI ([10]; ref Garside 2014): -VE
In vivo DILI ([10]; ref Gustafsson 2014): -VE
In vivo DILI ([10]; ref O'Brien 2006): -VE
In vivo DILI ([10]; ref Persson 2013): -VE
In vivo DILI ([10]; ref Porceddu 2012): +VE
In vivo DILI ([10]; ref Proctor 2017): -VE
In vivo DILI ([10]; ref Tolosa 2019): -VE
In vivo DILI ([10]; ref Xu 2008): -VE
Upcytes multi donor assay 14day data (Upcyte human hepatocytes): -VE
Partition Hybrid HRM Score ([11]; In vitro Assay, ref Aleo 2019): -VE
Ro2 Hybrid HRM Score ([11]; In vitro Assay, ref Aleo 2019): -VE
Partition Hybrid HRM Score ≥4, Aleo (2019) [11, 17]: -VE
Partition Hybrid HRM Score ≥8, Aleo (2019) [11, 17]: -VE
Rule of Two hybrid HRM Score ≥3, Aleo (2019) [11, 17]: -VE
Rule of Two hybrid HRM Score ≥8, Aleo (2019) [11, 17]: -VE
AC50 (hLiMTs [12]; Homo sapiens, read-out: ATP endpoint AC50): 1960 µM
minimal effective concentration (hLiMTs [12]; Homo sapiens, read-out: ATP endpoint MEC): 1700 µM
DILI prediction hLiMTs (HCS-MEC) (hLiMTs [12]; [16]): -VE
hLiMTs <25x Avg Cmax ATP (hLiMTs [12]; hLiMTs, ATP endpoint, cut-off <25x Avg Cmax): -ve
hLiMTs <100x Avg Cmaxu ATP (hLiMTs [12]; hLiMTs, ATP endpoint, cut-off <100x Avg Cmaxu): +ve (<100x Avg Cmaxu)
hLiMTs <25x Avg Cmax HCS (hLiMTs [12]; hLiMTs, HCS endpoints, cut-off <25x Avg Cmax): -ve
hLiMTs <100x Avg Cmaxu HCS (hLiMTs [12]; hLiMTs, HCS endpoints, cut-off <100x Avg Cmaxu): -ve
hLiMTs <25x Avg Cmax All (hLiMTs [12]; hLiMTs, all endpoints (ATP and HCS), cut-off <25x Avg Cmax): -ve
hLiMTs Cmax max All (hLiMTs [12]; hLiMTs, all endpoints, Cmax max used): -ve
hLiMTs Cmax min All (hLiMTs [12]; hLiMTs, all endpoints, Cmax min used): -ve
hLiMTs <10 uM All (hLiMTs [12]; hLiMTs, all endpoints, cut-off <10 uM): -ve
hLiMTs <100x Avg Cmaxu All (hLiMTs [12]; hLiMTs, all endpoints, cut-off <100x Avg Cmaxu): +ve (<100x Avg Cmaxu)
hLiMTs ATP <100uM (hLiMTs [13]; [15]): -VE
hLiMTs/100xCmax, Proctor (2017) (hLiMTs [13]; hLiMTs, ATP, IC50 < 100 × Cmax.tot, ref Proctor et al. 2017): -VE
hLiMTs/100uM, Proctor (2017) (hLiMTs [13]; hLiMTs, ATP, IC50 threshold 100 µM, ref Proctor et al. 2017): -VE
